Reference: US20260209297A1, “ANTIMICROBIAL PEPTIDES AND MODIFICATIONS THEREOF” (priority 2022, published 2026)
≈ marks a conversion by molar mass, not a printed value. Where two headings read alike, the source gives them in different places. Residues, ends and D or L forms follow the SMILES beside them.

Key:
[1] = test system: Enterotoxigenic E. coli-F4; assay: Antibacterial growth inhibition in Mueller-Hinton media (OD600); type: cell-based; details: 37° C. overnight
Method: Salmonella typhimurium var. Copenhagen, Enterotoxigenic E. coli-F4 and Listeria monocytogens (F5244) strains were grown overnight on an LB agar plate at 37_C. A small number of bacteria was scraped from the plate and added to Mueller-Hinton (MH) growth media and grown to log phase. Cells were diluted to 1-3×10^6 CFU/mL and 50 μl were added to each well in a polypropylene 96-well plate. Synthesized peptide GMA4C_V1A was diluted into 0.2% BSA, 0.01% acetic acid solution and added to the concentration of 0.2, 0.4, 0.80, 1.6, 3.25, 7.5, 15, 30 and 60 and 120 µM. Then, 50 μl of each peptide solution was added to 50 μl of bacterial cells. Plates were parafilmed and incubated at 37° C. overnight. The concentrations at which bacterial growth inhibition was determined based on the OD600 nm value at each concentration relative to the OD600 nm value of MH medium alone and that of bacterial growth in MH medium without any peptide.

Candida albicans = details: Table 8
[2] = test system: Salmonella typhimurium var. Copenhagen; assay: Antibacterial growth inhibition in Mueller-Hinton media (OD600); type: cell-based; details: 37° C. overnight
F. oxysporum = assay: MIC antifungal assay in SFM culture media; type: cell-based; details: in vitro, low cationic conditions
Aspergillus fumigatus = Aspergillus fumigatus AF293; Table 8
L. monocytogenes F5244 = assay: Antibacterial growth inhibition in Mueller-Hinton media (OD600); type: cell-based, Listeria monocytogens; details: 37° C. overnight
C. parapsilosis = assay: MIC, CLSI M27/M38, half-strength potato dextrose broth; type: cell-based, Candida parapsilosis; details: C. parapsilosis ATCC 22019; Table 8
Method: MICs were determined at 24-72 hours.

Candida auris = details: Table 8
P. capsici [3] = assay: Disease symptom reduction on tomato leaves; type: in vivo; details: compared with GMA4C_AC
Source text: Antifungal activity in planta.

P. capsici [4] = assay: MIC antifungal assay in SFM culture media; type: cell-based; details: in vitro, low cationic conditions
F. graminearum = type: cell-based, Fusarium graminearum; details: in vitro, low cationic conditions
B. cinerea = assay: MIC antifungal assay in SFM culture media (with or without added salts); type: cell-based, Botrytis cinerea
Coccidioides sp. = type: cell-based; details: Table 8

Compound: CC[C@H](C)[C@H](NC(=O)[C@H](CCCNC(=N)N)NC(=O)[C@@H](NC(=O)[C@H](CS)NC(=O)[C@H](Cc1ccccc1)NC(=O)[C@H](CS)NC(=O)[C@H](CCCNC(=N)N)NC(=O)[C@H](CCCNC(=N)N)NC(=O)[C@H](CCCNC(=N)N)NC(=O)[C@H](Cc1ccccc1)NC(=O)CNC(=O)[C@H](CCCCN)NC(=O)[C@H](CS)NC(=O)[C@H](CCCNC(=N)N)NC(=O)CNC(=O)CN)[C@@H](C)O)C(=O)N[C@@H](CS)C(N)=O [GMA4C_V1A] (H-GGRCKGFRRRCFCTRIC-NH2; N-terminus assumed)
- Concentrations (in μM) at which growth inhibition was observed, Enterotoxigenic E. coli-F4 [1]: 7.5 to 60 µM
- MIC values (μg/ml) 100% (Candida albicans; Candida albicans ATCC 90028): 8 µg/mL (≈ 3.96 µM)
- MIC values (μg/ml) 100% (Candida albicans; Candida albicans CA3): 8 µg/mL (≈ 3.96 µM)
- MIC values (μg/ml) 100% (Candida albicans; Candida albicans SC5314): 8 µg/mL (≈ 3.96 µM)
- Concentrations (in μM) at which growth inhibition was observed, S. Typhimurium var. Copenhagen [2]: 15 to 60 µM
- antifungal activity relative to the wild-type GMA4C_AC control, F. oxysporum (F. oxysporum): equivalent
- MIC values (μg/ml) 100% (Aspergillus fumigatus): 32 µg/mL (≈ 15.9 µM)
- Concentrations (in μM) at which growth inhibition was observed, L. monocytogenes F5244 (L. monocytogenes F5244): 15 to 30 µM
- MIC values (μg/ml) 100% (C. parapsilosis): 4 µg/mL (≈ 1.98 µM)
- MIC values (μg/ml) 100% (Candida auris; Candida auris DI17-46): 8 µg/mL (≈ 3.96 µM)
- MIC values (μg/ml) 100% (Candida auris; Candida auris DI17-47): 8 µg/mL (≈ 3.96 µM)
- MIC values (μg/ml) 100% (Candida auris; Candida auris DI17-48): 8 µg/mL (≈ 3.96 µM)
- reducing disease symptoms caused by P. capsici (P. capsici [3]): more effective
- antifungal activity relative to the wild-type GMA4C_AC control, P. capsici (P. capsici [4]): equivalent
- antifungal activity relative to the wild-type GMA4C_AC control, F. graminearum (F. graminearum): equivalent
- fungal growth inhibition at 6 μM (B. cinerea; B. cinerea, in presence of 2 mM CaCl2, 6 μM): inhibit fungal growth
- potency of activity relative to GMA4C_AC (B. cinerea; B. cinerea, in presence of 100 mM NaCl or 100 mM KCl): 2 fold
- antifungal activity relative to the wild-type GMA4C_AC control, B. cinerea (B. cinerea; in vitro, low cationic conditions): equivalent
- MIC values (μg/ml) 100% (Coccidioides sp.; Coccidioides sp. Cocci1): 8 µg/mL (≈ 3.96 µM)
- MIC values (μg/ml) 100% (Coccidioides sp.; Coccidioides sp. Cocci2): 4 µg/mL (≈ 1.98 µM)
- MIC values (μg/ml) 100% (Coccidioides sp.; Coccidioides sp. DI17-143): 8 µg/mL (≈ 3.96 µM)
